Values joined by “and” are separate entries in the source; they are usually repeats but may differ in a detail not shown here. Equal values may be shown once.
Assays:
HuVec Cells = assay: Transfection of HuVec cells with DOTMA/DOPE/peptide and eGFP plasmid, fluorescent plate reader; format: cell-based; conditions: DOTMA/DOPE 1:1 plus peptide with RRRRRRRRRRRR (SEQ ID NO: 109) at n terminus; EF1Alpha eGFP plasmid; 0.01 mL complex; 42 hours
Method: (§1) Cells were plated to so that on the day of transfection the cells were 60-70% confluent in 96 well tissue culture plates. A DOMTA/DOPE Lipid solution (1:1 molar ratio) at 2 mg/mL in water were mixed with an equal volume of surface ligand peptides that had the nucleic acid binding moiety RRRRRRRRRRRR (SEQ ID NO: 109) covalently linked to the n terminus of each peptide during peptide synthesis. Peptides were at 2 mg/mL in water. The DOTMA/DOPE and the surface ligand peptide solution the transfection reagent was diluted 1 to 1 (v/v) in water. DOMTA/DOPE/PEPTIDE solutions were added to 0.1 mL of a plasmid DNA solution (EF1Alpha eGFP plasmid) at 5 μg/mL in OptiMEM. Lipofectamine 2000 was obtained from Life Technologies.
(§2) All solutions were at room temperature. A volume of 0.2 mL of a 5 μg/mL solution of DNA was aliquoted into each well of a non-tissue cultured treated plate. 4.0 μL of transfection reagents were added to DNA solutions respectively. The transfection reagent and DNA solution was mixed by pipetting up and down twice. Transfection complexes were formed for 10 minutes. After 10 minutes, 0.01 or 0.02 mL of the transfection complex was added to cells. HuVEC, HeLa, human adult keratinocytes, human primary adult fibroblast, and rat cortical neurons all respectively received 0.01 mL of the tramsfectopm complex. Human skeletal muscle cells, mouse C2C12 cells, Jurkat, and THP-1 cells received 0.02 mL of the transfection complex. Cells were incubated for 42 hours at 37° C. at 5% CO2. Plates were read on a fluorescent plate reader. Cells were also examined visually under a microscope to assess the extent of transfection (in terms of the percent of cells transfected) with a fluorescent microscope. Other modes of analysis, for example quantification with B-galactosidase or luciferase reports plasmids can also be used. […] Surface ligand that caused increase expression of GFP over the lipid DOTMA with no surface ligand were considered to enhance transfection or had higher % cells transfected were considered to enhance transfection. Peptides that gave greater than 2 fold enhancement are noted in bold and could be further optimized by adding different transfection enhancers or could be used with different cationic lipids or polymers.

NL-1 iPS Cells = assay: Transfection of NL-1 iPS cells with DOTMA/DOPE/peptide and eGFP plasmid, fluorescent plate reader; format: cell-based; conditions: DOTMA/DOPE 1:1 plus peptide with RRRRRRRRRRRR (SEQ ID NO: 109) at n terminus; EF1Alpha eGFP plasmid; 42 hours
Method: as §1, §2

HeLa Cells [1] = assay: Transfection of HeLa cells with DOTMA/DOPE/peptide and eGFP plasmid, fluorescent plate reader; format: cell-based; conditions: DOTMA/DOPE 1:1 plus peptide with RRRRRRRRRRRR (SEQ ID NO: 109) at n terminus; EF1Alpha eGFP plasmid; 0.01 mL complex; 42 hours
Method: as §1, §2

Jurkat Cells = assay: Transfection of Jurkat cells with DOTMA/DOPE/peptide and eGFP plasmid, fluorescent plate reader; format: cell-based; conditions: DOTMA/DOPE 1:1 plus peptide with RRRRRRRRRRRR (SEQ ID NO: 109) at n terminus; EF1Alpha eGFP plasmid; 0.02 mL complex; 42 hours
Method: as §1, §2

some examined cell types = assay: Transfection expression and % cells transfected over the no peptide control; format: cell-based; conditions: on some examined cell types
Method: as §1, §2

Human Fibroblast Cells = assay: Transfection of human fibroblast cells with DOTMA/DOPE/peptide and eGFP plasmid, fluorescent plate reader; format: cell-based; conditions: DOTMA/DOPE 1:1 plus peptide with RRRRRRRRRRRR (SEQ ID NO: 109) at n terminus; EF1Alpha eGFP plasmid; 0.01 mL complex; 42 hours
Method: as §1, §2

C2C12 Cells = assay: Transfection of C2C12 cells with DOTMA/DOPE/peptide and eGFP plasmid, fluorescent plate reader; format: cell-based, mouse; conditions: DOTMA/DOPE 1:1 plus peptide with RRRRRRRRRRRR (SEQ ID NO: 109) at n terminus; EF1Alpha eGFP plasmid; 0.02 mL complex; 42 hours
Method: as §1, §2

HeLa Cells [2] = assay: Transfection of HeLa cells with DOTMA/SEQ ID NO: 72/peptide compared with Lipofectamine 2000; format: cell-based; conditions: fusogenic peptide 0.1 mg/mL
Method: as §1, §2
The fusogenic peptide was added to the DOMTA/peptide formulation to achieve a final concentration of 0.1 mg/mL to see if transfection reagents were further enhanced by the addition of a fusogenic peptide and could provide higher transfection efficiency into HeLa cells and expression than the commercially available Lipofectamine 2000.

[3] = 0.1 μL of DOTMA/SEQ ID NO: 72/Peptide in well of a 96 well plate
[4] = 0.2 μL of DOTMA/SEQ ID NO: 72/Peptide in well of a 96 well plate
[5] = 0.3 μL of DOTMA/SEQ ID NO: 72/Peptide in well of a 96 well plate
[6] = 0.4 μL of DOTMA/SEQ ID NO: 72/Peptide in well of a 96 well plate

Row | Substance | RF (Relative Fluorescence) of Transfection of HuVec Cells (HuVec Cells) | RF (Relative Fluorescence) of Transfection of NL-1 iPS Cells (NL-1 iPS Cells) | RF (Relative Fluorescence) of Transfection of HeLa Cells (HeLa Cells [1]) | RF (Relative Fluorescence) of Transfection of Jurkat Cells (Jurkat Cells) | transfection expression and the % cells transfected over the no peptide control (some examined cell types) | RF (Relative Fluorescence) of Transfection of Human Fibroblast Cells (Human Fibroblast Cells) | RF (Relative Fluorescence) of Transfection of C2C12 Cells (C2C12 Cells) | RF (Relative Fluorescence), DOTMA/SEQ ID NO: 72/Peptide, HeLa Cells (HeLa Cells [2]; [3]) | RF (Relative Fluorescence), DOTMA/SEQ ID NO: 72/Peptide, HeLa Cells (HeLa Cells [2]; [4]) | RF (Relative Fluorescence), DOTMA/SEQ ID NO: 72/Peptide, HeLa Cells (HeLa Cells [2]; [5]) | RF (Relative Fluorescence), DOTMA/SEQ ID NO: 72/Peptide, HeLa Cells (HeLa Cells [2]; [6])
1 | 352 (RIQNLLKITNLRIKFVK; Peptidic transfection agent) [compound 352] | 3130 | 11628 | 32126 | 3150 | increased | 3059 | 3324 | – | – | – | –
2 | 371 (GPAGKDGEAGAQG; Peptidic transfection agent) [compound 371] | 10669 | 17587 | 5180 | 6093 | – | 4584 | 983 | – | – | – | –
3 | 239 (KNSFMALYLSKGRLVFALG; Peptidic transfection agent) [compound 239] | 1404 | 4129 | 2717 | 2343 | increased | 4084 | 10620 | – | – | – | –
4 | 338 (GTPGPQGIA; Peptidic transfection agent) [compound 338] | 12000 | 17288 | 6241 | 4475 | increased | 5625 | 2290 | – | – | – | –
5 | 256 (RQVFQVAYIIIKA; Peptidic transfection agent) [compound 256] | 3030 | 1825 | 2243 | 3322 | increased | 2656 | 3207 | – | – | – | –
6 | 502 (RNIAEIIKDI; Peptidic transfection agent) [compound 502] | – | – | – | – | – | – | 2589 | – | – | – | –
7 | 226 (ANGQTPIQRYIK; Peptidic transfection agent) [compound 226] | 20864 | 24920 | 7340 | 12976 | increased | 3431 | 1664 | – | – | – | –
8 | 349 (RNIAEIIKDI; Peptidic transfection agent) [compound 349] | 22907 | 33103 | 4433 | 23167 | increased | 8810 | – | – | – | – | –
9 | 383 (TAG; Peptidic transfection agent) [compound 383] | 20267 | 21983 | 8012 | 14910 | – | 5896 | 1876 | – | – | – | –
10 | 393 (LGTIPG; Peptidic transfection agent) [compound 393] | – | – | – | – | increased | – | – | – | – | – | –
11 | 234 (YEKPGSPPREVVPRPRPGV; Peptidic transfection agent) [compound 234] | 13956 | 14410 | 3867 | 5441 | – | 4145 | 681 | – | – | – | –
12 | 107 (RRRRRRRR; Peptidic transfection agent) [compound 107] | – | 1441 | 75 | – | – | – | – | – | – | – | –
13 | 236 (KNNQKSEPLIGRKKT; Peptidic transfection agent) [compound 236] | 14418 | 43542 and 22256 | 7202 and 5042 | – | increased | 3630 and 3000 | – | 5993 | 8846 | 8492 | 7316
14 | 501 (DLGTAGSCLRRFSTM; Peptidic transfection agent) [compound 501] | – | – | – | 12350 | increased | 9473 | 5913 | 23571 | 23993 | 20410 | 14749
15 | 224 (KPDVRSYTITG; Peptidic transfection agent) [compound 224] | 15945 | 25209 | 5559 | 13170 | – | 5995 | 1469 | – | – | – | –
16 | 363 (LAGSCLARFSTM; Peptidic transfection agent) [compound 363] | 1383 | 4189 | 2590 | 2432 | – | 3008 | 1080 | – | – | – | –
17 | 235 (KARSFNVNQLLQD; Peptidic transfection agent) [compound 235] | 26940 | – | – | – | – | – | – | – | – | – | –
18 | 335 (TVFSVDQDNMLE; Peptidic transfection agent) [compound 335] | 6350 | 14424 | 26954 | 4567 | – | 8534 | 4689 | 12866 | 12458 | 11547 | 9753

— US11085056B2, “Transfection complexes and methods of using the same” (MOLECULAR TRANSFER, INC., priority 2015, dated 2021)
